# From US7671085B2, “Non-steroidal farnesoid X receptor modulators and methods for the use thereof” (The Salk Institute for Biological Studies, priority 2002, dated 2010)
# Experiments:
# [1] = system: IBABP mRNA in HT29-FXRFL cells; assay: Northern blot of IBABP mRNA in HT29 stable cell lines; format: cell-based, Human; conditions: for concentration for maximal induction of IBABP mRNA: overnight treatment
# Method: (§1) HepG2 or HT29-derived cell lines were typically cultured in medium containing superstripped FBS for 24 hr before the addition of a ligand or DMSO (vehicle) for an additional 24-48 hr. Total RNA was isolated using TRIzol reagent and was resolved (10 μg/lane) on a 1% agarose, 2.2 M formaldehyde gel, transferred to a nylon membrane (Hybond N^+; Amersham Biosciences, Inc.), and cross-linked to the membrane with UV light.
# (§2) cDNA probes were radiolabeled with [α-^32P]dCTP using the highprime labeling kit (Amersham Biosciences, Inc.). Membranes were hybridized using the QuikHyb hybridization solution (Stratagene, La Jolla, Calif.) according to the manufacturer's protocol. Blots were normalized for variations of RNA loading by hybridization to a control probe, either, 18 S ribosomal cDNA, or the ribosomal protein 36B4. The RNA levels were quantitated using a PhosphorImager (ImageQuant software; Molecular Dynamics, Inc., Sunnyvale, Calif.) in addition to being exposed to X-ray film.
# Human colon cells HT29 (FXR null until differentiated) were infected with retroviral vectors that expressed either FXR constructs and the puromycin-resistant gene or the puromycin-resistant gene alone. Puromycin resistant cells were isolated and pooled cell populations were propagated that harbored either the vector alone (HT29-BABE), overexpressed FXR full length (HT29-FXRFL), a non-functional FXR truncated at the AF2 region (HT29-FXR-AF2), or a constitutively active FXR that has the VP16 activation domain fused N-terminal of the protein (HT29-VP16-FXR). Confirmation of the successful establishment of the different stable cell lines was established via northern blot analysis of FXR message levels in the cells.
# These observations verify the usefulness of this colon cell model system for studying the induction of FXR target genes.
# The ability of the novel compounds identified herein to induce IBABP gene expression in this cell system was also examined. Total RNA from HT29 stable cells treated overnight with fexaramine, fexarine and fexarene was probed for IBABP gene expression.
# SXR = biological target: T1, SXR (Homo sapiens, UniProt O75469); assay: nuclear receptor panel: SXR activation; format: cell-based
# T1 sequence (O75469 1-434): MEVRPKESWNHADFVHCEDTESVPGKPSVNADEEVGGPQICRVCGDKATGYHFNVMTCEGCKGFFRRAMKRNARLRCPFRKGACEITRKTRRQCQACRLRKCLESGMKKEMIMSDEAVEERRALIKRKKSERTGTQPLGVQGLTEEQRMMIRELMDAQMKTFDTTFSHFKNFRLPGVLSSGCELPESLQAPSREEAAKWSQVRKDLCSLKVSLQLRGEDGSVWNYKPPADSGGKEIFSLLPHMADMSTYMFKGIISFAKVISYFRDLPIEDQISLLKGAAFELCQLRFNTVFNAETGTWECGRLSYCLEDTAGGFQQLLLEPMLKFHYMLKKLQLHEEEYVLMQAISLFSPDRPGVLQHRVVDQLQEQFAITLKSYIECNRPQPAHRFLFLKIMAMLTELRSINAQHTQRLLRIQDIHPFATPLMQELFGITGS
# FXR = biological target: T2, FXR (Homo sapiens, UniProt Q96RI1); assay: cell-based FXR transcription assay, FXR responsive promoter linked to luciferase reporter; conditions: cell-based FXR reporter assay; footnote a not given
# T2 construct: using a full length FXR on a natural response element; expressed in transfected cells
# T2 sequence (Q96RI1 1-486): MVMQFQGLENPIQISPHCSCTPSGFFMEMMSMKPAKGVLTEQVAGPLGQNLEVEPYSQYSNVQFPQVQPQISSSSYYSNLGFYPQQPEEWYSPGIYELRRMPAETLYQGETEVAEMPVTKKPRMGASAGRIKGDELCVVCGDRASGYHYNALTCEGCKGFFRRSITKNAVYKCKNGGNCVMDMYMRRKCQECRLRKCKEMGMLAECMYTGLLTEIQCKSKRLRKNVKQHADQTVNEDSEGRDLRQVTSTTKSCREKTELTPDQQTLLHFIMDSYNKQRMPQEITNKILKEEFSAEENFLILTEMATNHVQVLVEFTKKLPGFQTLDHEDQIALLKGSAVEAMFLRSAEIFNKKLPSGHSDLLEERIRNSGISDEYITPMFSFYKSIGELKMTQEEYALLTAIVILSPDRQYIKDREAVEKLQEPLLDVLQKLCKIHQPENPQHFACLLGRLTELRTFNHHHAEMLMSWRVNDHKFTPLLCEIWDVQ
# Outline: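 Cells co-transfected with full-length FXR and a luciferase reporter driven by a natural response element on a minimal promoter. Compound exposure ≈10 μM for 18 h before washing and luciferase read-out, in 384-well format, with CDCA as reference activator. EC50 derived from transcriptional activity.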
# [2] = system: FXR target genes SHP, MRP-2, BSEP and PLTP; assay: Northern blot of FXR target genes in HEPG2-FXR cells; format: cell-based; conditions: SHP, MRP-2, BSEP, PLTP
# Method: as §1, §2
# Total RNA was isolated and the expression of the FXR target genes SHP, MRP-2, BSEP and PLTP was measured by Northern blot analysis. […]
# [3] = system: FXR (IBABP, PLTP and MRP-2 promoters); assay: transient transfection cell-based assay with natural promoters of FXR targets (IBABP, PLTP, MRP-2)
# From the text: For this study, the following gene promoters were used: intestinal bile acid binding protein (IBABP; see, for example, Grober et al. (1999). Identification of a bile acid-responsive element in the human ileal bile acid-binding protein gene. Involvement of the farnesoid X receptor/9-cis-retinoic acid receptor heterodimer. J Biol Chem. 274(42), 29749-54), phospholipid transfer protein (PLTP) (Urizar et al (2000). The farnesoid X-activated receptor mediates bile acid activation of phospholipid transfer protein gene expression. J Biol Chem. 275(50), 39313-7) and multidrug resistance related protein 2 (MRP-2) (Kast et al. (2002), supra), which are all well characterized targets of FXR. The natural promoters of both the IBABP and PLTP genes contain one copy of an inverted repeat with a one base spacing (IR-1) while MRP-2 contains an ER-8 element. […] The most robust activation (28-fold) was seen on the IBABP promoter. Less robust (2-3 fold) but specific activation was observed on the PLTP and MRP-2 promoters.
# mouse FXR and human RXR = biological target: T3, mouse FXR and human RXR (Mus musculus, UniProt Q60641); assay: CV-1 transient transfection reporter gene assay, TK minimal promoter with ECRE or ER-8 FXRE; format: cell-based; conditions: CV-1 cells
# T3 construct: expressed in transfected cells; host or cells: CV-1 cells
# T3 sequence (Q60641 1-488): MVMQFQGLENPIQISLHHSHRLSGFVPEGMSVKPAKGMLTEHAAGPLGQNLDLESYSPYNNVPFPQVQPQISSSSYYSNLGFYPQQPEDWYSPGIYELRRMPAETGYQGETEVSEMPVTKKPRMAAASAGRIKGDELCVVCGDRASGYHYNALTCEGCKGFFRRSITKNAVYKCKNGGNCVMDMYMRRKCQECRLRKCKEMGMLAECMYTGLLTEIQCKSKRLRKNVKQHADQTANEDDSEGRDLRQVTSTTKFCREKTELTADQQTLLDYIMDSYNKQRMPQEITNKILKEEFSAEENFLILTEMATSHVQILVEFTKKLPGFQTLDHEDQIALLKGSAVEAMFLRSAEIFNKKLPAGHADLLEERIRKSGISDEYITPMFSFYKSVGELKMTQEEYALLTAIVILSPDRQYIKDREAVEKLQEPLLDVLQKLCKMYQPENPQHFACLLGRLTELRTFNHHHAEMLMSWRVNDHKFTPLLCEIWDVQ
# T3 sequence (P19793 1-462 partner): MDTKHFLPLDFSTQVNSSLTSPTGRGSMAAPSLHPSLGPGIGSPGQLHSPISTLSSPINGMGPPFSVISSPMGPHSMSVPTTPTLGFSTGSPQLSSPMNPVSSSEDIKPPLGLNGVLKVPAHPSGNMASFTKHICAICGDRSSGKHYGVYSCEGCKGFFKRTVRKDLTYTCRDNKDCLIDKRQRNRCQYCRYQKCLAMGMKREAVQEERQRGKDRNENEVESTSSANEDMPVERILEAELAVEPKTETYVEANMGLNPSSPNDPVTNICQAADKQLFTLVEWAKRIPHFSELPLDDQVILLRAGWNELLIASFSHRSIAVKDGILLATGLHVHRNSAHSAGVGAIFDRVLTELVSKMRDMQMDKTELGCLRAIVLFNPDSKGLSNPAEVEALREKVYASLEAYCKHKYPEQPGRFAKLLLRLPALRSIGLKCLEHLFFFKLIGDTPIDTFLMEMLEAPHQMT
# Method: The ability of these compounds to activate the receptor in a number of different cell-based reporter gene assays was then determined. […] CV-1 cells were transiently transfected with an expression plasmid for mouse FXR and human RXR with a thymidine kinase (TK) minimal promoter reporter vector containing either no copies or six copies of the ecdysone response element (ECRE), a well-characterized FXR response element (FXRE). In addition, two copies of the recently identified FXRE everted repeat separated by 8 nucleotides (ER-8) was also studied (see, for example, Laffitte et al. (2000). Identification of the DNA binding specificity and potential target genes for the farnesoid X-activated receptor. J Biol Chem. 275(14), 10638-47; Kast et al. (2002). Regulation of multidrug resistance-associated protein 2 (ABCC2) by the nuclear receptors pregnane X receptor, farnesoid X-activated receptor, and constitutive androstane receptor. J Biol Chem. 277(4), 2908-15).
# [4] = HT29-BABE or HT29-FXR-AF2 cell lines
# [5] = HT29-VP16-FXR cells (constitutive expression)
smiles,measurement,setting,value
"C[C@H](CCC(=O)O)[C@H]1CC[C@H]2[C@@H]3[C@H](O)C[C@@H]4C[C@H](O)CC[C@]4(C)[C@H]3CC[C@]12C [CDCA, chenodeoxycholic acid, reference compound]","induction of IBABP mRNA, in words",[1]; [4],No induction of IBABP mRNA levels
same,"induction of IBABP mRNA, in words",[1]; HT29-FXRFL cells,robust concentration dependent induction of IBABP mRNA
same,concentration for maximal induction of IBABP mRNA,[1]; HT29-FXRFL cells,100 µM
same,"induction of IBABP mRNA, in words",[1]; [5],super-induced
COC(=O)/C=C/c1cccc(N(Cc2ccc3c(c2OC)OC(C)(C)C2C3C2(Cl)Cl)C(=O)C2CCCCC2)c1 (centres unmarked) [Compound 149],"SXR activation, in words",SXR,potently activated SXR
same,RE^a,FXR,0.50
COC(=O)/C=C/c1cccc(N(Cc2ccc(-c3ccc(N(C)C)cc3)cc2)C(=O)NC(C)C)c1 [Compound 261],RE^a,FXR,1.01
COC(=O)/C=C/c1cccc(N(Cc2ccc(-c3ccc(C(C)(C)C)cc3)cc2)C(=O)C2CCCCC2)c1 [Compound 262],RE^a,FXR,1.38
COC(=O)/C=C/c1cccc(N(Cc2ccc(-c3ccc(C(C)(C)C)cc3)cc2)C(=O)C(C)C)c1 [Compound 263],RE^a,FXR,0.59
COC(=O)/C=C/c1cccc(N(Cc2ccc(-c3ccc(C(C)(C)C)cc3)cc2)C(=O)NC(C)C)c1 [Compound 264],RE^a,FXR,1.02
"CC(C)c1onc(-c2c(Cl)cccc2Cl)c1COc1ccc(/C=C/c2cccc(C(=O)O)c2)c(Cl)c1 [GW4064, reference compound]","induction of FXR target genes, in words",[2],slightly better induction of the FXR target genes PLTP and SHP
same,concentration of maximum efficacy,[3],1 µM
same,"induction of IBABP mRNA, in words",[1]; [4],No induction of IBABP mRNA levels
same,"induction of IBABP mRNA, in words",[1]; HT29-FXRFL cells,robust concentration dependent induction of IBABP mRNA
same,concentration for maximal induction of IBABP mRNA,[1]; HT29-FXRFL cells,1 µM
same,"induction of IBABP mRNA, in words",[1]; [5],super-induced
same,concentration at which maximal activity is achieved,mouse FXR and human RXR; ECRE and ER-8 reporters,1 µM
same,activity on the minimal TK promoter,mouse FXR and human RXR; no FXRE copies,less than 2 fold
same,activation of ECRE FXRE reporter,"mouse FXR and human RXR; six copies of ECRE, TK minimal promoter",100 fold
same,activation of ER-8 FXRE reporter,"mouse FXR and human RXR; two copies of ER-8, TK minimal promoter",4 fold
